According to the Kinase Knowledgebase extract (Sharma et al. 2016):

Molecular target: PIK3CD (Human) (UniProt O00329)
Test: Enzyme Assay

PIK3CD (Human), sequence (O00329 whole entry, looked up): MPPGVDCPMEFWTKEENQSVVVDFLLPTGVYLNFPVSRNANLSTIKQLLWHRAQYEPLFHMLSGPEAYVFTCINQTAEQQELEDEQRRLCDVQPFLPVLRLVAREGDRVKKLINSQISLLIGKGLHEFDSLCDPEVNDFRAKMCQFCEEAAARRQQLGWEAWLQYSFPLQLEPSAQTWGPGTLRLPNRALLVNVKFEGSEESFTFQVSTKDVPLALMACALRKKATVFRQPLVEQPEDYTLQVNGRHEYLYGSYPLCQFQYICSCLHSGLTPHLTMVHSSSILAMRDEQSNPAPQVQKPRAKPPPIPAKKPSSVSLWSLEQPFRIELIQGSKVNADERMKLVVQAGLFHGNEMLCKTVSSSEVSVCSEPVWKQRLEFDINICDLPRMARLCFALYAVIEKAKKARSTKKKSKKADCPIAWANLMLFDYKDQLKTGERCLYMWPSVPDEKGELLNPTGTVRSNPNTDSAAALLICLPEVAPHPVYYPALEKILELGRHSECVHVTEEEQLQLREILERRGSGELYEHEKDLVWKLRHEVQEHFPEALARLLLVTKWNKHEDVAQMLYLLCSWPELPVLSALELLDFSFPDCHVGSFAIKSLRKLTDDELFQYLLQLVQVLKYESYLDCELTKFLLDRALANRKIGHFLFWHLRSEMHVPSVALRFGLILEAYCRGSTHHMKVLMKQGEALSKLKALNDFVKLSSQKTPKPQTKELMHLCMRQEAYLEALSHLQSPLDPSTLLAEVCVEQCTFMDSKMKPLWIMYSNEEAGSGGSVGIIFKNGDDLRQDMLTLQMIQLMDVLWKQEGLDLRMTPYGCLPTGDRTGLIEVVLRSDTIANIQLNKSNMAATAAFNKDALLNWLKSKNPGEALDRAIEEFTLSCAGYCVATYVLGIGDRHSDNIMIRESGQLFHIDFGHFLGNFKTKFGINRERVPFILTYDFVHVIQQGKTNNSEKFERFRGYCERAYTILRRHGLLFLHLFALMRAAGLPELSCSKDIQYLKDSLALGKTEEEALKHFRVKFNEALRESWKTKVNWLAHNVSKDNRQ

Compound | IC50 [nM]
CCn1ncc(-c2nc3c(S(=O)(=O)[C@H]4CCN(C(=O)OC(C)(C)C)C4)ncnc3n2C)c1C | 160
CCn1c(-c2ccc(C(F)(F)F)nc2)nc2c(O[C@H]3CCN(C(=O)N4CC(OC)C4)C3)ncnc21 | < 1
CCC(=O)N1CC[C@H](Oc2ncnc3c2nc(-c2cnc(OC)c(C)c2)n3CC)C1 | 0.5
CCn1ncc(-c2nc3c(O[C@H]4CCN(C(=O)c5c[nH]nc5C(F)(F)F)C4)ncnc3n2C)c1C | 21
CCn1ncc(-c2nc3c(O[C@H]4CCN(C(=O)Oc5ccc(OC)cc5)C4)ncnc3n2C)c1C | 65
CCn1ncc(-c2nc3c(O[C@H]4CCN(C(=O)Oc5ccc(C)cc5)C4)ncnc3n2C)c1C | 340
CC[C@@H]1CN(C(=O)OCc2ccccc2)C[C@H]1Oc1ncnc2c1nc(-c1cnc(C)nc1)n2CC.CC[C@H]1CN(C(=O)OCc2ccccc2)C[C@@H]1Oc1ncnc2c1nc(-c1cnc(C)nc1)n2CC | 90
CCn1ncc(-c2nc3c(O[C@H]4CCN(C(=O)c5cc6n(n5)CCC6)C4)ncnc3n2C)c1C | 76
CCn1ncc(-c2nc3c(S[C@H]4CCN(C(=O)C5CCOCC5)C4)ncnc3n2C)c1C | 18
CCC(=O)N1CC[C@H](Oc2ncnc3c2nc(-c2cnn(CC)c2C)n3CC)C1 | 0.6
CCn1ncc(-c2nc3c(O[C@H]4CCN(c5cc(C(F)(F)F)ccn5)C4)ncnc3n2C)c1C | 37
CCn1ncc(-c2nc3c(O[C@H]4CCN(C(=O)c5cc(C(F)(F)F)nn5C)C4)ncnc3n2C)c1C | 26
CCn1c(-c2cnc(C)nc2)nc2c(O[C@H]3CCN(C(=O)N(C)c4ccccc4)C3)ncnc21 | 32
CCC(=O)N1CC[C@H](Oc2ncnc3c2nc(Oc2cnc(C)nc2)n3C)C1 | 380
CCn1ncc(-c2nc3c(O[C@H]4CCN(c5ccccn5)C4)ncnc3n2C)c1C | 680
CCC(=O)N1CC[C@H](Oc2ncnc3c2nc(-c2cnc(OC)c(C#N)c2)n3C)C1 | 8.4
CCn1ncc(-c2nc3c(O[C@H]4CCN(C(=O)c5cnn(C(C)C)c5)C4)ncnc3n2C)c1C | 30
CCn1c(-c2cnn(-c3ccccc3)c2C)nc2c(O[C@H]3CCN(C(=O)C4CC4)C3)ncnc21 | < 1
CCn1ncc(-c2nc3c(O[C@H]4CCN(C(=O)c5ccncc5)C4)ncnc3n2C)c1C | 13
CCn1ncc(-c2nc3c(O[C@H]4CCN(C(=O)c5nnc(N(C)C)o5)C4)ncnc3n2C)c1C | 68
CCn1ncc(-c2nc3c(O[C@H]4CCN(Cc5ccc(N(C)C)cc5)C4)ncnc3n2C)c1C | 3100
CCn1ncc(-c2nc3c(O[C@H]4CCN(C(=O)C5CC(=O)N(C)C5)C4)ncnc3n2C)c1C (stereo not given in full) | 30
CCn1c(C(=O)NCC(F)(F)F)nc2c(O[C@H]3CCN(C(=O)OC(C)(C)C)C3)ncnc21 | 31

Compound | IC50 [nM]
CCn1c(C(=O)NCC2CC2)nc2c(O[C@H]3CCN(C(=O)OC(C)(C)C)C3)ncnc21 | 150
CCn1ncc(-c2nc3c(O[C@H]4CCN(C(=O)c5cnoc5C(C)C)C4)ncnc3n2C)c1C | 41
CCn1ncc(-c2nc3c(O[C@H]4CCN(C(=O)Oc5ccccc5)C4)ncnc3n2C)c1C | 90
CCn1ncc(-c2nc3c(O[C@H]4CCN(S(=O)(=O)C(F)(F)F)C4)ncnc3n2C)c1C | 1000
CCn1ncc(-c2nc3c(O[C@H]4CCN(C(=O)c5cnoc5C5CC5)C4)ncnc3n2C)c1C | 79
CCn1ncc(-c2nc3c(O[C@H]4CCN(c5cncc(C)n5)C4)ncnc3n2C)c1C | 26
CCn1ncc(-c2nc3c(O[C@H]4CCN(C(=O)C5CCOCC5)C4)ncnc3n2C)c1C | 4.3
CCn1c(-c2cnc(C)nc2)nc2c(O[C@H]3CCN(c4ccc5cnoc5c4)C3)ncnc21 | 11
CCn1c(-c2cnc(C)nc2)nc2c(O[C@H]3CCN(C(=O)N4CC(OC)C4)C3)ncnc21 | 1.8
CCC(=O)N1CC[C@H](Oc2ncnc3c2nc(-c2cnn(CC)c2C)n3CC(F)F)C1 | 3.1
CCn1c(-c2cnc(C(F)(F)F)nc2)nc2c(O[C@H]3CCN(C(=O)C4CC4)C3)ncnc21 | 18
CCn1ncc(-c2nc3c(OC4CCN(C(=O)C5CCCC5)CC4)ncnc3n2C)c1C | 550
CCn1ncc(-c2nc3c(O[C@H]4CCN(C(=O)c5nc6cc(Cl)ccn6n5)C4)ncnc3n2C)c1C | 860
CCn1ncc(-c2nc3c(O[C@H]4CCN(S(=O)(=O)c5ccc(-c6ccccc6)cc5)C4)ncnc3n2C)c1C | 4600
Cc1nn(C)cc1-c1nc2c(O[C@H]3CCN(C(=O)OC(C)(C)C)C3)ncnc2n1C | 1200
CCn1ncc(-c2nc3c(O[C@H]4CCN(C(=O)c5nc(C(C)(C)O)no5)C4)ncnc3n2C)c1C | 110
CCn1c(-c2cnc(C)nc2)nc2c(O[C@H]3CCN(C(=O)OC(C)(C)C)[C@@H]3C)ncnc21 | 4
CCn1c(-c2cnc(C)nc2)nc2c(O[C@H]3CCN(C(=O)[C@H]4C[C@H]5CC[C@@H]4C5)C3)ncnc21 | 1.2
CCn1ncc(-c2nc3c(O[C@H]4CCN(C(=O)C5CCOC(C)(C)C5)C4)ncnc3n2C)c1C (stereo not given in full) | 1.2
CCC(=O)N1CC[C@H](Oc2ncnc3c2nc(CC(C)C)n3C)C1 | 890
CCC(=O)N1CC[C@H](Oc2ncnc3c2nc(-c2ccc4[nH]ncc4c2)n3C)C1 | 44
CCn1c(-c2cnc(OC)c(F)c2)nc2c(O[C@H]3CCN(C(=O)C4CCOCC4)C3)ncnc21 | < 1
